In experiment [1] the target is GABAC (ρ2) receptor (Homo sapiens, UniProt P28476). The experiment can be described thus: Two-electrode voltage clamp at GABAC (ρ2) receptors expressed in Xenopus oocytes. Particulars: for current response to compound in the presence of GABA: 100 μM compound + 1 μM GABA; for current response to compound in the presence of GABA / response to compound alone / current response to GABA alone: FIG. 11(b); for response to compound alone: 100 μM compound alone; for inhibition at 100 µM: read-out: inhibition of the GABA response.
Protocol: (§1) For example, ρ1 GABAC receptor subunit subcloned in ρ1 cDNA 1.1 and is linearised using the restriction enzyme Xbal . Following this, the mRNA is then prepared from the linearised ρ1 subunit using T7 polymerase. This genetic material is then injected into the Xenopus laevis oocytes and incubated for 2 to 9 days, to allow for the process of translation to occur. After this process the Xenopus laevis oocytes show expression of the receptor and ion channel assembly on the cell surface.
(§2) Female Xenopus laevis frogs were anaesthetised with tricaine (850 mg/500 mL) and a lobe of their ovaries surgically removed. […] Stage V-VI oocytes were collected and stored in Frog Ringer (ND96) wash solution (96 mM NaCI, 2 mM KCI, 1 mM MgCl2.6H20, 1.8 mM CaCl2.2H2O, 5 mM HEPES (hemi-Na salt), pH 7.5) supplemented with 2.5 mM sodium pyruvate, 0.5 mM theophylline, and 50 μg/mL gentamicin.
(§3) Micropipettes were prepared by the microprocessor-controlled vertical pipette puller (World Precision Instruments) and bevelled to a tip diameter of 10-20 μm. The micropipettes were filled with mineral oil to ensure the mRNA solution would be drawn up into the micropipette under negative pressure. A Nanoject injector (World Precision Instruments) was used to deliver GABAA, GABAB or GABAC mRNA (50 nL) into the cytoplasm of the Xenopus oocytes. After injection with the appropriate mRNA, the oocytes were placed in a storage solution of ND96 wash solution supplemented with 2.5 mM sodium pyruvate, 0.5 mM theophylline and gentamicin (50 μg/mL) and stored on a slow speed rotator in an 18° C. controlled temperature incubator (Contherm, Petone, NZ). The storage solution was changed daily (or twice daily) and dead or unhealthy oocytes were removed to prolong the health of the remaining cells.
(§4) Prior to recording, 100 mM stock solutions of (±)-cis- and (±)-trans-3-ACPBPA were prepared using autoclaved MilliQ water and stored at −20° C. […] At the time the experiments were to be recorded, the stock solutions were diluted with ND96 wash solution for testing on GABAA and GABAC receptors or 45 mM K^+ solution (45 mM NaCI, 45 mM KCI, 1 mM MgCl2.6H2O, 1.8 mM CaCl2.2H2O, 5 mM HEPES (hemi-Na salt), pH 7.5 at 25° C.) for testing on GABAB receptors.
(§5) After 2 to 9 days of incubation, receptor activity using two-electrode voltage clamp recordings were acquired by means of a Geneclamp 500 amplifier (Axon Instruments Inc., Foster City, Calif., USA), a MacLab 2e recorder (AD Instruments, Sydney, Australia) and Chart™ v.3.6.3 for Macintosh (AD Instruments) to digitise the current and voltage signals.
(§6) The recording microelectrodes were prepared from borosilicate glass capillaries (1.2 mm i.d.×0.94 mm o.d.; Clark Electromedical Instruments, Pangbourne, UK) using a micropipette puller (World Precision Instruments). The microelectrodes (tip resistances 0.5-1.5 MΩ) were filled with 3 M potassium chloride and a microscope was used to direct the insertion of these microelectrodes into the oocyte positioned in the cell bath. The membrane potential of the oocyte was then voltage-clamped at −60 mV.
(§7) Oocytes with an adequate level of receptor expression (with maximal currents (I)≧50 nA) were used for subsequent recording. […] Oocytes were washed for 3-4 minutes between applications of drug doses to ensure for receptor recovery.

In experiment [2] the target is T1, GABAB (1b,2) receptor (Homo sapiens, UniProt Q9UBS5).
T1 construct: expressed in transfected cells; host or cells: Xenopus laevis oocytes injected with mRNA
The experiment can be described thus: Two-electrode voltage clamp at GABAB (1b,2) receptors co-expressed with GIRK1 and GIRK4 in Xenopus oocytes. Particulars: for effect as agonist or antagonist: 300 μM compound; for current response to compound in the presence of GABA: 300 μM compound + 1 μM GABA; for current response to compound in the presence of GABA / response to compound alone: FIG. 10(a); for response to compound alone: 300 μM compound alone. The format is cell-based.

Experiment [3] has as its target GABAA (α2β2γ2s) receptor (Homo sapiens, UniProt P47869+P47870). The experiment can be described thus: Two-electrode voltage clamp at GABAA (α2β2γ2s) receptors expressed in Xenopus oocytes. Particulars: for effect as agonist or antagonist: 1 mM compound; for current response to compound in the presence of GABA: 1 mM compound + 3 μM GABA; for current response to compound in the presence of GABA / response to compound alone / current response to GABA alone: FIG. 9; for response to compound alone: 1 mM compound alone; for current response to GABA alone: oocyte clamped at −60 mV.
Protocol: as §1, §2, §3, §4, §5, §6, §7

In experiment [4] the target is GABAC (ρ1) receptor (Homo sapiens, UniProt P24046). The experiment can be described thus: Two-electrode voltage clamp at GABAC (ρ1) receptors expressed in Xenopus oocytes. Particulars: for current response to compound in the presence of GABA: 100 μM compound + 1 μM GABA; for current response to compound in the presence of GABA / response to compound alone / current response to GABA alone: FIG. 11(a); for response to compound alone: 100 μM compound alone; for Hill coefficient (nH) for GABA in the presence of the antagonist / I/Imax, maximal GABA response maintained in the presence of the antagonist: (±)-cis 40 μM or (±)-trans 30 μM; for I/Imax, maximal GABA response maintained in the presence of the antagonist / type of antagonism: FIG. 12; for type of antagonism: parallel shift of the GABA dose-response curves; for inhibition at 100 µM: read-out: inhibition of the GABA response. In general terms: Two-electrode voltage clamp holds a large cell at a set potential and records current.
Protocol: as §1, §2, §3, §4, §5, §6, §7

The target of experiment [5] is T2, GABAC (ρ3) receptor (Rattus norvegicus, UniProt P50573).
T2 sequence (P50573 16-464): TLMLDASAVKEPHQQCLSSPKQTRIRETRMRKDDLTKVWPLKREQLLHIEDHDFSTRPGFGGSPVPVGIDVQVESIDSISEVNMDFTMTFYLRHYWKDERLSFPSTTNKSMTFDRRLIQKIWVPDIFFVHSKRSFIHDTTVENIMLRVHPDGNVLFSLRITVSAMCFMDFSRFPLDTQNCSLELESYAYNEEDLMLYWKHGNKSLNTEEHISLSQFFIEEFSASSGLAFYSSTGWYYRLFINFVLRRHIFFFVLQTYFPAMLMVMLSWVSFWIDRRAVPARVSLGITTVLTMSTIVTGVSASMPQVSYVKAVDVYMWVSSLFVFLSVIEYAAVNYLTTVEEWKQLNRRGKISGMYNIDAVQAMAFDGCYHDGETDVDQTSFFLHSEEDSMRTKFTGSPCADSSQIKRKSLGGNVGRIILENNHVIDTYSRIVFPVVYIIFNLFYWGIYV
The experiment can be described thus: Two-electrode voltage clamp at GABAC (ρ3) receptors expressed in Xenopus oocytes. Particulars: for current response to compound in the presence of GABA: 100 μM compound + 10 μM GABA; for response to compound alone: 100 μM compound alone; for inhibition at 100 µM: read-out: inhibition of the GABA response.
Protocol: as §1, §2, §3, §4, §5, §6, §7

Experiment [6] has as its target T3, GABAB (1a,2) receptor (Homo sapiens, UniProt Q9UBS5).
T3 construct: expressed in transfected cells; host or cells: Xenopus laevis oocytes injected with mRNA
The experiment can be described thus: Two-electrode voltage clamp at GABAB (1a,2) receptors co-expressed with GIRK1 and GIRK4 in Xenopus oocytes. Format: cell-based. Particulars: for effect as agonist or antagonist: 300 μM compound; for current response to compound in the presence of GABA: 300 μM compound + 3 μM GABA; for current response to compound in the presence of GABA / response to compound alone: FIG. 10(b); for response to compound alone: 300 μM compound alone.

In experiment [7] the target is GABAB receptor (Homo sapiens, UniProt Q9UBS5). The experiment can be described thus: Two-electrode voltage clamp at GABAB receptors (subtype not stated) expressed in Xenopus oocytes. Particulars: for effect as agonists or antagonists: 300 μM compound; for inhibition at 1000 µM: read-out: inhibition of 1 μM GABA (weak antagonist effect); for EC50: read-out: EC50 as GABAB receptor agonist.

Experiment [8] has as its target GABAC receptors. Particulars: Woodward et al, 1993; read-out: KB as antagonist at GABAC receptors; cited from earlier work.
The subject of experiment [9] is GABAA receptors. The experiment can be described thus: Activity of ACPMPA isomers at GABAA receptors (subtype not stated), as for ACPBPA. Particulars: for reduction of the current produced by GABA (10 μM): 300 μM compound. Format: cell-based.
The target in experiment [10] is GABAC receptor (Homo sapiens, UniProt P24046). The experiment can be described thus: Activity of ACPMPA isomers as GABAC receptor antagonists (subtype not stated), as for ACPBPA. Format: cell-based. Also noted: expressed in transfected cells. Particulars: for Kb: read-out: KB as GABAC receptor antagonist.

“Also recorded” adds a separate entry of the source.

Sequence of GABAC (ρ1) receptor (P24046 22-479): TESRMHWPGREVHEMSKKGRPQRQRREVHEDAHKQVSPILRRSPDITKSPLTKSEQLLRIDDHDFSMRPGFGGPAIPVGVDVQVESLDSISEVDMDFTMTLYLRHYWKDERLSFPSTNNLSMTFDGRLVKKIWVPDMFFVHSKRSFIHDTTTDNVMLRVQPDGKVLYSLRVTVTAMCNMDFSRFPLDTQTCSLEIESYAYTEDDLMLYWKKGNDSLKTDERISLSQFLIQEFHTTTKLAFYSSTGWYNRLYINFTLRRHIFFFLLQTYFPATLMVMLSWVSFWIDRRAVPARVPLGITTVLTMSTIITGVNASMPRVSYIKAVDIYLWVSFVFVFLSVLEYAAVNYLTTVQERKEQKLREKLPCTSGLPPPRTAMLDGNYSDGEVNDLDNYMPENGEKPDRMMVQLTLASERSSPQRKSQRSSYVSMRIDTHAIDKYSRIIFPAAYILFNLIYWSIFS
Sequence of GABAC receptor (P24046 22-479): as above
Sequence of GABAC (ρ2) receptor (P28476 21-465): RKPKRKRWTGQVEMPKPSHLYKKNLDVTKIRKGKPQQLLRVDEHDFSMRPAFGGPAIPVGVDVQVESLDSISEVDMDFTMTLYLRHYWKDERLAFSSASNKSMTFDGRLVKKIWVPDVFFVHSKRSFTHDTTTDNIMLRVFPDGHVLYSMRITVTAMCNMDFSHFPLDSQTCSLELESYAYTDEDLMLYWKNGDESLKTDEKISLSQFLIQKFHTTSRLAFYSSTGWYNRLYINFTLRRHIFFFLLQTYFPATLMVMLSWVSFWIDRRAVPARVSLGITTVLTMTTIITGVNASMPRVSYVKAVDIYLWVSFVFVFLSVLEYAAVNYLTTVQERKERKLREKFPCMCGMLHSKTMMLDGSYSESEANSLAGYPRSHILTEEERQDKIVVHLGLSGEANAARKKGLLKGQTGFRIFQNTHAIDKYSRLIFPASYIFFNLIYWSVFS
T1 sequence (Q9UBS5 1-844 isoform Q9UBS5-2): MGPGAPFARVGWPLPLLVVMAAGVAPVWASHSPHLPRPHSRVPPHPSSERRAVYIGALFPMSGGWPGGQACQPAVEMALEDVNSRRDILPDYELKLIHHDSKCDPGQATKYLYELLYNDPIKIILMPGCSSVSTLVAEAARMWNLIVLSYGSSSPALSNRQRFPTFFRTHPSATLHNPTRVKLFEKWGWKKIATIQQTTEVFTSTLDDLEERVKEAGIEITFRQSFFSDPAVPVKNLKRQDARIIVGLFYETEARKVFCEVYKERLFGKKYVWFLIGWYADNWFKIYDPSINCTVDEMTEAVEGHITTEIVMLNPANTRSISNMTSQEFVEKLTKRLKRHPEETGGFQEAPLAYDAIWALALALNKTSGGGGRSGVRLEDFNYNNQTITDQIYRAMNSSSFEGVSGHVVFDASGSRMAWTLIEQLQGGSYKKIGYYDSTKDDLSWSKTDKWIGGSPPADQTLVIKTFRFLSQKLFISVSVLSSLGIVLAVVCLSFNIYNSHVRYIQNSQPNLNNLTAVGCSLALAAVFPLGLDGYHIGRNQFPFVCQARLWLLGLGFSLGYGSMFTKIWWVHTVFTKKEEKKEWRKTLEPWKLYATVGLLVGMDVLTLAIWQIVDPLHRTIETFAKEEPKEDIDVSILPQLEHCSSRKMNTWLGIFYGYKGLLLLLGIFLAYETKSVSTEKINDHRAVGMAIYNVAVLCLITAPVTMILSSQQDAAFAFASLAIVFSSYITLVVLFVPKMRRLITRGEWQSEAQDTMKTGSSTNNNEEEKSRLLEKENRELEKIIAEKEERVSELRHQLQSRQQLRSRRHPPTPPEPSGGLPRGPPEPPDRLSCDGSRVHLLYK
T1 sequence (O75899 42-941 partner): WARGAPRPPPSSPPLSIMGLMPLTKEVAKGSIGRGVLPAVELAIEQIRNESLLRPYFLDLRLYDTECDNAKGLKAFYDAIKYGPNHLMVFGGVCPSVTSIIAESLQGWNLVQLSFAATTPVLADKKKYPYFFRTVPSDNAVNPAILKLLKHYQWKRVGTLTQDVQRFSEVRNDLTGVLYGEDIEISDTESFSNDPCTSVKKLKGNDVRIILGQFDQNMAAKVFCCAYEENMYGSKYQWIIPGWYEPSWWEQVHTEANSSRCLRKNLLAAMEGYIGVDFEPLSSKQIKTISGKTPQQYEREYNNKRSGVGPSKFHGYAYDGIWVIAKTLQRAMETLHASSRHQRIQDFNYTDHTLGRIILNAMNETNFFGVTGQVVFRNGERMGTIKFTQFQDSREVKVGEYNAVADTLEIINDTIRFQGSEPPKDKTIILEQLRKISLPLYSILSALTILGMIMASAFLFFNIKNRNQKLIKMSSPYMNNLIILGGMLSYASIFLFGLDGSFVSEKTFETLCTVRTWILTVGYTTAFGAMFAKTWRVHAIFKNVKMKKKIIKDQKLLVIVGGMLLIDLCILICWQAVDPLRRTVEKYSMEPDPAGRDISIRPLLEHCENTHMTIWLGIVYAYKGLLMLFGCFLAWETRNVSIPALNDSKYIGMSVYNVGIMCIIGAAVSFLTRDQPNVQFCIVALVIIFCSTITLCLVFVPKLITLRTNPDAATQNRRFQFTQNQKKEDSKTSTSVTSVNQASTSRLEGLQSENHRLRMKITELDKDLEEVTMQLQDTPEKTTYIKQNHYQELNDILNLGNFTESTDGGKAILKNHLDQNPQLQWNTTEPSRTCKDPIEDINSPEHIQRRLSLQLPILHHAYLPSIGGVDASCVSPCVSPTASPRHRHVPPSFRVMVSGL
T3 sequence (Q9UBS5 15-961 limits assumed): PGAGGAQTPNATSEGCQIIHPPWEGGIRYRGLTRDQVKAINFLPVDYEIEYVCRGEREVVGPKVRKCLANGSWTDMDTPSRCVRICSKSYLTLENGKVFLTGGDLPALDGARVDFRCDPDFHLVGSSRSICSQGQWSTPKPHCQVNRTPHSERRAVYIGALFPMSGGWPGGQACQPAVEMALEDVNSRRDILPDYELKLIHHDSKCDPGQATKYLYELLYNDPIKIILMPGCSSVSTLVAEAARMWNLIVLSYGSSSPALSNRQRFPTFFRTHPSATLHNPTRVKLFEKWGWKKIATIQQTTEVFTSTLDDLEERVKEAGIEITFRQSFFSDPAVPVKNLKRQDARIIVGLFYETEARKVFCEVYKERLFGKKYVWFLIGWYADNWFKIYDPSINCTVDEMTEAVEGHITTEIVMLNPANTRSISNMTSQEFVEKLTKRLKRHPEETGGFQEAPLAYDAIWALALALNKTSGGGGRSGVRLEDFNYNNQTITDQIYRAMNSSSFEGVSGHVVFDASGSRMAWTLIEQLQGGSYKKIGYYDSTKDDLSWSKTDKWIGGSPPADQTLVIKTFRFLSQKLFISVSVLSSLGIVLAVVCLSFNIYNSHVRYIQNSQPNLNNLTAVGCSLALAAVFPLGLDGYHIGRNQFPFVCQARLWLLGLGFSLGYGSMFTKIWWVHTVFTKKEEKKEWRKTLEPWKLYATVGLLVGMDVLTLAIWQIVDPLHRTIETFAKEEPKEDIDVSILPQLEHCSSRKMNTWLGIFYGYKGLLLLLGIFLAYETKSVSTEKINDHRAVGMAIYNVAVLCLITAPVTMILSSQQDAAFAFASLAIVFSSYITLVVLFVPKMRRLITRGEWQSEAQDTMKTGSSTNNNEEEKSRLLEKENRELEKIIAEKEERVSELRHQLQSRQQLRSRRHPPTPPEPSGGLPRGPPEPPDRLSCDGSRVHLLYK
T3 sequence (O75899 42-941 partner): as the sequence (O75899 42-941 partner) above
Sequence of GABAB receptor (Q9UBS5 20-961): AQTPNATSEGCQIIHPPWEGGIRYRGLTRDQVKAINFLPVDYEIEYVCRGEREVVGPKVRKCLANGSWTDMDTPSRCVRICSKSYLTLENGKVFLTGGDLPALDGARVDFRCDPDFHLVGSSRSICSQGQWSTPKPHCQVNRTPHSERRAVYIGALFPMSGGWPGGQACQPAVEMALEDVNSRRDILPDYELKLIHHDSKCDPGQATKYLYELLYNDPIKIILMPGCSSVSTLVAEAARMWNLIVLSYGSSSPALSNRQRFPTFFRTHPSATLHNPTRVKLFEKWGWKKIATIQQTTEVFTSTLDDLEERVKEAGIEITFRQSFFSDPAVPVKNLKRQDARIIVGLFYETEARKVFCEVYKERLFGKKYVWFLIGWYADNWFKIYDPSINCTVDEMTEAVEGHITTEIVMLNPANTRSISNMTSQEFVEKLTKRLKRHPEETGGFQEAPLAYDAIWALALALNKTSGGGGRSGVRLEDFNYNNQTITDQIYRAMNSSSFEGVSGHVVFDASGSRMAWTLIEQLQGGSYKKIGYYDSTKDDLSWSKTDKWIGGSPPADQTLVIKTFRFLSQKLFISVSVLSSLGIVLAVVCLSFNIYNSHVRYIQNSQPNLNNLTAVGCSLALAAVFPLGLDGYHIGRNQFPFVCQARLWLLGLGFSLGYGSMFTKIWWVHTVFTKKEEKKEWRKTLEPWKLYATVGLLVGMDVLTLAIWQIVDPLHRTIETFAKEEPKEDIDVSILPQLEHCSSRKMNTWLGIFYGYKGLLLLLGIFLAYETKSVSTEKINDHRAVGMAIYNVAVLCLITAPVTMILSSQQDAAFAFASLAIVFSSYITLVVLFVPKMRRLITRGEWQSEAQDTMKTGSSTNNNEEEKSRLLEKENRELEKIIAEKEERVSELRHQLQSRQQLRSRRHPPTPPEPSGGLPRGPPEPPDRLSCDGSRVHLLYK
Sequence of GABAB receptor (O75899 42-941 partner): as the sequence (O75899 42-941 partner) above

As for `CCCCP(=O)(O)[C@H]1CC[C@@H](N)C1` (racemic) [(±)-cis-3-ACPBPA, (±)-cis-(3-aminocyclopentanyl)butylphosphinic acid], in [1], the “antagonist activity in words” value is “potent antagonists”, the “current response to compound in the presence of GABA” value (from here on “current response to compound”) stood at 4 nA, the “response to compound alone” value is recorded as “no detectable response” and the inhibition (commonly the share of the control response that was lost under treatment) at 100 µM was about 100%. In experiment [2], the Kb is over 300 µM, the “effect as agonist or antagonist” value is listed as “did not act as an agonist or antagonist; also recorded: no apparent effect as an agonist or antagonist; also recorded: no effect as agonists or antagonists; also recorded: No effect”, the “current response to compound” value stood at 20 nA and the “response to compound alone” value is “no response was detected”. Moreover, in experiment [3], the “effect as agonist or antagonist” value is “did not act as an agonist or antagonist; also recorded: no effect as an agonist or antagonist; also recorded: no effect as an agonist or an antagonist; also recorded: No effect”, the “current response to compound” value was 65 nA and the “response to compound alone” value is on record as “no response was detected”. For the same compound, in experiment [4], the Kb turned out to be 12.5 ± 1.2 µM, the “antagonist activity in words” value was “potent antagonists”, the “current response to compound” value is on record as 2 nA and the “response to compound alone” value is listed as “no recordable response”. Also, in [4], the “Hill coefficient (nH) for GABA in the presence of the antagonist” value was found to be 2.3±0.2; the “I/Imax, maximal GABA response maintained in the presence of the antagonist” value is 0.91±0.02; the type of antagonism entry was “competitive antagonists”; the inhibition at 100 µM is about 100%. Moreover, the “potency relative to (±)-trans-3-ACPBPA” value in experiment [4] (ratio of estimated KB values) is given as 3.5 times. For the same compound, in [5], the “antagonist activity in words” value was “potent antagonists” and the inhibition at 100 µM came to 85%. Further, in experiment [5] (FIG. 11(c)), the “current response to compound” value turned out to be 120 nA and the “response to compound alone” value is given as “no measurable response”. Besides, in [6], the Kb is over 300 µM, the “effect as agonist or antagonist” value is reported as “did not act as an agonist or antagonist; also recorded: no apparent effect as an agonist or antagonist; also recorded: no effect as agonists or antagonists; also recorded: No effect”, the “current response to compound” value stood at 405 nA and the “response to compound alone” value was “no response was detected”. Also, in [7], the Kb is over 1000 µM, the “effect as agonists or antagonists” value is “no effect as agonists or antagonists” and the inhibition at 1000 µM turned out to be 10%.

Regarding `CCCCP(=O)(O)[C@@H]1CC[C@@H](N)C1` (racemic) [(±)-trans-3-ACPBPA, (±)-trans-(3-aminocyclopentanyl)butylphosphinic acid], in experiment [1], the “antagonist activity in words” value was “potent antagonists”, the “current response to compound” value is recorded as 17 nA, the “response to compound alone” value is “no measurable response” and the inhibition at 100 µM is 32%. In experiment [2], the Kb was over 300 µM, the “effect as agonist or antagonist” value is “did not act as an agonist or antagonist; also recorded: no apparent effect as an agonist or antagonist; also recorded: no effect as agonists or antagonists; also recorded: No effect”, the “current response to compound” value was found to be 15 nA and the “response to compound alone” value is recorded as “no detectable response”. Further, in experiment [3], the “effect as agonist or antagonist” value is recorded as “did not act as an agonist or antagonist; also recorded: no effect as an agonist or antagonist; also recorded: no effect as an agonist or an antagonist; also recorded: No effect”, the “current response to compound” value is on record as 60 nA and the “response to compound alone” value is listed as “no detectable response”. Further, in [4], the Kb is 43.8 ± 5.1 µM, the “antagonist activity in words” value is “potent antagonists”, the “current response to compound” value turned out to be 34 nA and the “response to compound alone” value is “no detectable response”. Besides, in experiment [4], the “Hill coefficient (nH) for GABA in the presence of the antagonist” value was found to be 2.2±0.2; the “I/Imax, maximal GABA response maintained in the presence of the antagonist” value is 0.94±0.05; the type of antagonism entry is “competitive antagonists”; the inhibition at 100 µM is 77%. Further, in experiment [5], the “antagonist activity in words” value is reported as “potent antagonists” and the inhibition at 100 µM is 45%. Besides, in [5] (FIG. 11(c)), the “current response to compound” value stood at 455 nA and the “response to compound alone” value was “no visible response”. For the same compound, in [6], the Kb is over 300 µM, the “effect as agonist or antagonist” value is “did not act as an agonist or antagonist; also recorded: no apparent effect as an agonist or antagonist; also recorded: no effect as agonists or antagonists; also recorded: No effect”, the “current response to compound” value is on record as 407 nA and the “response to compound alone” value is “no detectable response”. Further, in experiment [7], the Kb was over 1000 µM, the “effect as agonists or antagonists” value was “no effect as agonists or antagonists” and the inhibition at 1000 µM was found to be 10%.

`NCCCP(=O)(O)O` [3-APA, 3-aminopropylphosphonic acid]: in experiment [8], the Kb was 1.8 µM.

Regarding `NCCC[PH](=O)O` [CGP27492, 3-aminopropylphosphinic acid], in experiment [8], the Kb is 0.8 µM.

`CP(=O)(O)CCCN` [CGP35024, (3-aminopropyl)methylphosphinc acid]: the Kb in experiment [8] was 0.8 µM.

Consider `NCCCC(=O)O` [GABA, γ-Aminobutyric acid, reference compound], for which the “current response to GABA alone” value in [1] (GABA 1 μM) is 23 nA; in experiment [1] (GABA 100 μM) it was 35 nA; in experiment [3] (GABA 3 μM), 65 nA; in experiment [3] (GABA 300 μM) it was 1180 nA; in experiment [4] (GABA 1 μM), 105 nA; in experiment [4] (GABA 10 μM), 142 nA. In [5] (GABA 10 μM, FIG. 11(c)), the “current response to GABA alone” value is reported as 880 nA. In addition, the “Hill coefficient (nH) for GABA alone” value in experiment [4] (GABA dose-response curve) amounted to 1.9±0.3.

Regarding “(±)-cis-(3-Aminocyclopentanyl)methylphosphinic acid [(±)-cis-3-ACPMPA]”, in experiment [9], the “GABAA antagonist activity in words” value was “very weak activity as antagonists” and the “reduction of the current produced by GABA (10 μM)” value amounted to 8%. Moreover, in experiment [7], the “GABAB agonist activity in words” value is on record as “moderately potent GABAB receptor agonists” and the EC50 (in general, the concentration that produces a half-maximal response) was determined as 50 µM. In addition, in experiment [10], the “selectivity for GABAC than GABAA receptors” value is on record as “more than 100 times”, the “selectivity for GABAC than GABAB receptors” value is 50 times, the “times more potent than (±)-cis-3-ACPBPA at the GABAC receptors” value is given as 12 times and the “times more potent than TPMPA” value is 2 times. In addition, the Kb in [10] amounted to 1 µM.

For “(±)-trans-(3-Aminocyclopentanyl)methylphosphinic acid [(±)-trans-3-ACPMPA]”, in [9], the “GABAA antagonist activity in words” value was “very weak activity as antagonists” and the “reduction of the current produced by GABA (10 μM)” value is on record as 11%. Also, in experiment [7], the “GABAB agonist activity in words” value is reported as “moderately potent GABAB receptor agonists” and the EC50 was 160 µM. Also, in experiment [10], the “selectivity for GABAC than GABAA receptors” value was determined as 45 times, the “selectivity for GABAC than GABAB receptors” value was found to be 24 times, the “times less potent than TPMPA” value was found to be 3 times and the Kb came out at 6.6 µM.

The values above are taken from patent publication US6962907B2, “Neurologically-active compounds” (The University of Sydney, priority 2001, dated 2005).
